{"source": "patent US4880791A", "about": "“Combination product composed of xanthine derivatives and O-acetylsalicylic acid or its pharmacologically tolerated salts, and its use” (priority 1984, dated 1989)", "key": {"[1]": {"tested_on": "laser-induced thrombosis in the arterioles and venules of the rat mesentery", "experiment": "laser-induced thrombosis in arterioles of the rat mesentery", "type": "in vivo, rat (female Sprague-Dawley)", "conditions": "for Changes from controls, % / Changes from controls, absolute / Number of shots: single substance", "method": "The evaluation was carried out by analysis by vital microscopy (Nature, 218 (1968) 887 and Haemostasis 13 (1983) 61 and IRCS Med. Sci. 12 (1984) 91).\nThe test substances were administered in 0.9% sodium chloride solution (which contained 1% carboxymethylcellulose (Serva, Heidelberg)) either orally, intraperitoneally or intravenously. Control animals were treated in the corresponding manner but without the test substances. The experimental animals used were male or female Sprague-Dawley or Wistar rats.\nThe animals which were to be investigated underwent s.c. premedication with 0.1 mg of atropine sulfate in solution and were anesthetized with 100 mg of ketamine hydrochloride and 4 mg of xylazine per kg of body weight i.p. The investigation made use of arterioles and venules of the mesentery, which was coated with degassed liquid paraffin, having a diameter of about 13 μm. The beam of a 4 W argon laser (supplied by Spectra Physics, Darmstadt) was introduced coaxially, by means of a beam adaptation and adjustment system (supplied by BTG, Munich), into the inverted optical path of a microscope (ICM 405, LD-Epipland 40/0.60; supplied by Zeiss, Oberkochen). The wavelength used was 514.5 nm, with an energy above the objective of 30.5 mW. The exposure time per single shot was 1/15 sec. All the measuring operations were recorded by video camera (Trinicon tube, Sony, Cologne) and stored in a recorder (Sony, U-matic 3/4\"). The test substances were administered in various doses to the experimental animals, orally one hour, and on i.v. administration 10 min., before the start of the experiment, control animals receiving the same amount of placebo.\nThe number of shots needed to induce a defined thrombus is counted.\nThe results of the experiment were subjected to statistical analysis using the .chi.^2 test (L. Cavalli-Sforza, Biometrie (Biostatistics), Stuttgart, 1969, pages 49 et seq.). […]"}, "[2]": {"tested_on": "mucosa of the glandular stomach", "experiment": "test of gastric tolerance (ulcerogenic effect)", "type": "in vivo, rat (male Sprague-Dawley)", "conditions": "for Number of animals with ulcers: 10 animals", "method": "24 hours after the last medication, the stomach was cut open along the lesser curvature, cleaned under running water, and inspected for mucosal lesions. All lesions visible on macroscopic inspection of the mucosa of the glandular stomach were regarded as ulcers."}, "[3]": {"tested_on": "erythrocyte filterability", "experiment": "erythrocyte filterability in adjuvant arthritis rats", "type": "in vivo, rat", "conditions": "oral 21 days", "method": "(§1) The hemorheological, antithrombotic, antiaggregatory and antiinflammatory effects of the combinations according to the invention were investigated after oral administration for 21 days in the pathological model of adjuvant arthritis (induced with Mycobacterium butyricum) is the rat by the method of Clincal Hemorheology 3 (1983) 469-480, and were compared with those of the appropriate individual substances. Blood was taken from the thoracic aorta 1 hour after the last administration of substance. All the details of the determination of the hemorheological effect were as described in Clinical Hemorheology 4 (1984) 263-273. The erythocyte deformability was quantitatively determined in a filtrometer (Myrenne MF 4, Roetgen, Germany) by evaluation of the initial gradient of the flow curve."}, "[4]": {"tested_on": "tendency to thrombosis in arthritic rat", "experiment": "laser-induced tendency to thrombosis in arthritic rats", "type": "in vivo", "conditions": "oral 21 days", "method": "as §1\nThe antithrombotic effect was measured using the laser model as described above."}, "[5]": {"tested_on": "induced platelet aggregation", "experiment": "collagen-induced platelet aggregation in arthritic rats", "type": "in vivo, rat", "conditions": "oral 21 days", "method": "as §1\nThe measurements of platelet aggregation were carried out as described above in detail. However, instead of arachidonic acid 0.04 mg of collagen was used to induce platelet aggregation in 1 ml of platelet-rich plasma (PA II aggregometer from Myrenne, Roetgen)."}, "[6]": {"tested_on": "adjuvant arthritis (Mycobacterium butyricum) in the rat", "experiment": "antiinflammatory effect in adjuvant arthritis (paw edema, necrosis index)", "type": "in vivo", "method": "as §1\nThe antiflammatory effect was quantitatively measured, as quoted above, using the volume of the edema of the paw and using the standard necrosis index."}, "[7]": {"tested_on": "rat aortas", "conditions": "treatment of the rats with acetylsalicylic acid; cited from earlier work"}, "[8]": {"tested_on": "human blood platelets", "conditions": "cited from earlier work"}, "[9]": {"tested_on": "cyclooxygenase", "conditions": "cited from earlier work"}, "[10]": {"tested_on": "vascular cyclooxygenase", "conditions": "cited from earlier work"}, "[11]": {"conditions": "customary doses; cited from earlier work"}, "[12]": {"conditions": "Table 1b, 1 mg/kg acetylsalicylic acid without pentoxifylline"}}, "data": [{"smiles": "CC(=O)Oc1ccccc1C(=O)O", "note": "[Acetylsalicylic acid, O-acetylsalicylic acid]", "values": [{"measurement": "Changes from controls, %", "setting": "[1]; 1 mg/kg oral", "result": -13, "unit": "%"}, {"measurement": "Changes from controls, absolute", "setting": "[1]; 1 mg/kg oral", "result": "-0,35"}, {"measurement": "Number of shots", "setting": "[1]; 1 mg/kg oral", "result": "1,88"}, {"measurement": "Changes from controls, %", "setting": "[1]; 5 mg/kg oral", "result": -18, "unit": "%"}, {"measurement": "Changes from controls, absolute", "setting": "[1]; 5 mg/kg oral", "result": "-0,38"}, {"measurement": "Number of shots", "setting": "[1]; 5 mg/kg oral", "result": "1,79"}, {"measurement": "Changes from controls, %", "setting": "[1]; 10 mg/kg oral", "result": 35, "unit": "%"}, {"measurement": "Changes from controls, absolute", "setting": "[1]; 10 mg/kg oral", "result": "0,75"}, {"measurement": "Number of shots", "setting": "[1]; 10 mg/kg oral", "result": "2,92"}, {"measurement": "Changes from controls, %", "setting": "[1]; 30 mg/kg oral", "result": 48, "unit": "%"}, {"measurement": "Changes from controls, absolute", "setting": "[1]; 30 mg/kg oral", "result": "1,04"}, {"measurement": "Number of shots", "setting": "[1]; 30 mg/kg oral", "result": "3,21"}, {"measurement": "% change from controls", "setting": "[1]; [12]", "result": -13, "unit": "%"}, {"measurement": "-x (number of shots)", "setting": "[1]; [12]", "result": "1,90"}, {"measurement": "effect in laser-induced thrombosis", "setting": "[1]; oral dose 10 mg/kg", "result": "significant effect"}, {"measurement": "effect in laser-induced thrombosis", "setting": "[1]; single oral dose 5 mg/kg", "result": "not significant"}, {"measurement": "Number of animals with ulcers", "setting": "[2]; acetylsalicylic acid 25 mg/kg oral", "result": 5}, {"measurement": "Number of animals with ulcers", "setting": "[2]; acetylsalicylic acid 50 mg/kg oral", "result": 7}, {"measurement": "Number of animals with ulcers", "setting": "[2]; acetylsalicylic acid 100 mg/kg oral", "result": 9}, {"measurement": "Number of animals with ulcers", "setting": "[2]; acetylsalicylic acid 1,25 mg/kg oral", "result": 1}, {"measurement": "Number of animals with ulcers", "setting": "[2]; acetylsalicylic acid 12,50 mg/kg oral", "result": 2}, {"measurement": "gastric ulcerogenicity", "setting": "[2]; acetylsalicylic acid after pretreatment with pentoxifylline", "result": "unaffected by pretreatment with pentoxifylline"}, {"measurement": "erythrocyte filterability", "setting": "[3]; 10 mg, healthy = 100%, untreated arthritic 59%", "result": 63, "unit": "%"}, {"measurement": "erythrocyte filterability", "setting": "[3]; 180 mg", "result": 68, "unit": "%"}, {"measurement": "erythrocyte filterability in arthritic rats (in words)", "setting": "[3]", "result": "can be increased again"}, {"measurement": "tendency to thrombosis (number of shots)", "setting": "[4]; 10 mg, healthy = 100%, untreated arthritic 46%", "result": 47, "unit": "%"}, {"measurement": "tendency to thrombosis (number of shots)", "setting": "[4]; 180 mg", "result": 91, "unit": "%"}, {"measurement": "induced platelet aggregation", "setting": "[5]; 10 mg, untreated arthritic = 100%, healthy 0%", "result": 62, "unit": "%"}, {"measurement": "induced platelet aggregation", "setting": "[5]; 180 mg", "result": 35, "unit": "%"}, {"measurement": "Percentage improvement, necrosis index", "setting": "[6]; 10 mg", "result": 8, "unit": "%"}, {"measurement": "Percentage improvement, volume of paw edema, left paw", "setting": "[6]; 10 mg", "result": 2, "unit": "%"}, {"measurement": "Percentage improvement, volume of paw edema, right paw", "setting": "[6]; 10 mg", "result": 3, "unit": "%"}, {"measurement": "Percentage improvement, necrosis index", "setting": "[6]; 180 mg", "result": 28, "unit": "%"}, {"measurement": "Percentage improvement, volume of paw edema, left paw", "setting": "[6]; 180 mg", "result": 28, "unit": "%"}, {"measurement": "Percentage improvement, volume of paw edema, right paw", "setting": "[6]; 180 mg", "result": 26, "unit": "%"}, {"measurement": "release of the substance having antiaggregatory activity stimulated by pentoxifylline", "setting": "[7]", "result": "can be suppressed"}, {"measurement": "aggregation of human blood platelets", "setting": "[8]", "result": "inhibitor of the aggregation"}, {"measurement": "cyclooxygenase localized in the blood platelets", "setting": "[9]", "result": "inhibits the enzyme cyclooxygenase"}, {"measurement": "inhibition of vascular cyclooxygenase", "setting": "[10]", "result": "found only at higher doses"}, {"measurement": "undesired side effects", "setting": "[11]", "result": "asthma, allergic urticaria, analgesic nephropathy and peptic ulcers"}]}]}
